{"source": "ChEMBL document CHEMBL3232867", "about": "“Functionalized acridin-9-yl phenylamines protected neuronal HT22 cells from glutamate-induced cell death by reducing intracellular levels of free radical species” (Bioorg Med Chem Lett, 2014)", "key": {"HT-22 [1]": {"system": "HT-22", "test": "Neuroprotective activity in mouse HT22 cells assessed as protection against glutamate-induced oxidative damage at less than cytotoxic EC50 after 24 hrs by MTT assay", "format": "functional, cell-based"}, "HT-22 [2]": {"system": "HT-22", "test": "Cytotoxicity against mouse HT22 cells after 24 hrs by MTT assay", "format": "cell-based", "conditions": "HT-22, 24 h"}, "HT-22 [3]": {"system": "HT-22", "test": "Neuroprotective activity in mouse HT22 cells assessed as protection against glutamate-induced oxidative damage after 24 hrs by MTT assay", "format": "functional, cell-based", "conditions": "HT-22, 24 h"}, "[4]": {"test": "Ratio of EC50 for cytotoxicity against mouse HT22 cells to EC50 for neuroprotective activity in glutamate-induced mouse HT22 cells", "format": "toxicity, cell-based, HT-22", "conditions": "read-out: Ratio EC50"}}, "note": "The source made the active and inactive calls. The rule behind the calls is not given here.", "data": [{"smiles": "COc1ccc(CCN2CCC(Nc3c4ccc(Cl)cc4nc4ccc(OC)cc34)CC2)cc1", "values": [{"measurement": "Activity", "setting": "HT-22 [1]", "value": "inactive"}, {"measurement": "EC50", "setting": "HT-22 [2]", "value": 4.36, "unit": "µM"}]}, {"smiles": "CCN1CCN(c2ccc(Nc3c4ccc(Cl)cc4nc4ccc(OC)cc34)cc2)CC1", "values": [{"measurement": "EC50", "setting": "HT-22 [3]", "value": 0.64, "unit": "µM"}, {"measurement": "selectivity ratio", "setting": "[4]", "value": 20.3}, {"measurement": "EC50", "setting": "HT-22 [2]", "value": 13, "unit": "µM"}]}, {"smiles": "CN1CCN(c2ccc(Nc3ccnc4cc(Cl)ccc34)cc2)CC1", "values": [{"measurement": "EC50", "setting": "HT-22 [3]", "value": 2.8, "unit": "µM"}, {"measurement": "selectivity ratio", "setting": "[4]", "value": "> 9"}, {"measurement": "EC50", "setting": "HT-22 [2]", "value": "> 25", "unit": "µM"}]}, {"smiles": "Clc1ccc2c(NC3CCN(Cc4ccccc4)CC3)ccnc2c1", "values": [{"measurement": "Activity", "setting": "HT-22 [1]", "value": "inactive"}, {"measurement": "EC50", "setting": "HT-22 [2]", "value": 16.4, "unit": "µM"}]}, {"smiles": "Nc1c2ccccc2nc2ccccc12", "note": "[AMINACRINE]", "values": [{"measurement": "Activity", "setting": "HT-22 [1]", "value": "inactive"}, {"measurement": "EC50", "setting": "HT-22 [2]", "value": 9.19, "unit": "µM"}]}, {"smiles": "COc1ccc2nc3cc(Cl)ccc3c(NC3CCN(Cc4ccc(Cl)cc4)CC3)c2c1", "values": [{"measurement": "Activity", "setting": "HT-22 [1]", "value": "inactive"}, {"measurement": "EC50", "setting": "HT-22 [2]", "value": 7.69, "unit": "µM"}]}, {"smiles": "COc1ccc2nc3cc(Cl)ccc3c(Nc3ccc(N4CCN(C(=O)C5CCCCC5)CC4)cc3)c2c1", "values": [{"measurement": "EC50", "setting": "HT-22 [3]", "value": 1.34, "unit": "µM"}, {"measurement": "selectivity ratio", "setting": "[4]", "value": 11.3}, {"measurement": "EC50", "setting": "HT-22 [2]", "value": 15.1, "unit": "µM"}]}, {"smiles": "Clc1ccc2c(Nc3ccccc3)c3c(nc2c1)CCCC3", "values": [{"measurement": "Activity", "setting": "HT-22 [1]", "value": "inactive"}, {"measurement": "EC50", "setting": "HT-22 [2]", "value": "> 40", "unit": "µM"}]}, {"smiles": "COc1ccc2nc3cc(Cl)ccc3c(Nc3ccc(N4CCN(C(=O)c5ccccc5)CC4)cc3)c2c1", "values": [{"measurement": "EC50", "setting": "HT-22 [3]", "value": 0.18, "unit": "µM"}, {"measurement": "selectivity ratio", "setting": "[4]", "value": 110}, {"measurement": "EC50", "setting": "HT-22 [2]", "value": 19.9, "unit": "µM"}]}, {"smiles": "CN1CCN(c2ccc(Nc3c4c(nc5cc(Cl)ccc35)CCCC4)cc2)CC1", "values": [{"measurement": "EC50", "setting": "HT-22 [3]", "value": 3.65, "unit": "µM"}, {"measurement": "selectivity ratio", "setting": "[4]", "value": "> 11"}, {"measurement": "EC50", "setting": "HT-22 [2]", "value": "> 40", "unit": "µM"}]}, {"smiles": "COc1ccc2nc3cc(Cl)ccc3c(NC3CCN(CCc4ccc(Cl)cc4)CC3)c2c1", "values": [{"measurement": "Activity", "setting": "HT-22 [1]", "value": "inactive"}, {"measurement": "EC50", "setting": "HT-22 [2]", "value": 4.52, "unit": "µM"}]}, {"smiles": "COc1ccc2nc3cc(Cl)ccc3c(Nc3ccc(CN4CCCCC4)cc3)c2c1", "values": [{"measurement": "EC50", "setting": "HT-22 [3]", "value": 0.39, "unit": "µM"}, {"measurement": "selectivity ratio", "setting": "[4]", "value": 27.3}, {"measurement": "EC50", "setting": "HT-22 [2]", "value": 10.7, "unit": "µM"}]}, {"smiles": "COc1ccc2nc3cc(Cl)ccc3c(Nc3ccc(F)cc3)c2c1", "values": [{"measurement": "EC50", "setting": "HT-22 [3]", "value": 0.85, "unit": "µM"}, {"measurement": "selectivity ratio", "setting": "[4]", "value": 20}, {"measurement": "EC50", "setting": "HT-22 [2]", "value": 17, "unit": "µM"}]}, {"smiles": "CCN(CC)CCNc1ccnc2cc(Cl)ccc12", "values": [{"measurement": "Activity", "setting": "HT-22 [1]", "value": "inactive"}, {"measurement": "EC50", "setting": "HT-22 [2]", "value": "> 25", "unit": "µM"}]}, {"smiles": "Nc1ccc(Nc2ccccc2)cc1", "values": [{"measurement": "EC50", "setting": "HT-22 [3]", "value": 0.026, "unit": "µM"}]}, {"smiles": "CCN(CC)c1ccc(Nc2c3c(nc4cc(Cl)ccc24)CCCC3)cc1", "values": [{"measurement": "EC50", "setting": "HT-22 [3]", "value": 1.03, "unit": "µM"}, {"measurement": "selectivity ratio", "setting": "[4]", "value": "> 29"}, {"measurement": "EC50", "setting": "HT-22 [2]", "value": "> 30", "unit": "µM"}]}, {"smiles": "COc1ccc2nc3cc(Cl)ccc3c(Nc3cccc(O)c3)c2c1", "values": [{"measurement": "EC50", "setting": "HT-22 [3]", "value": 2.13, "unit": "µM"}, {"measurement": "selectivity ratio", "setting": "[4]", "value": 4.6}, {"measurement": "EC50", "setting": "HT-22 [2]", "value": 9.75, "unit": "µM"}]}, {"smiles": "COc1ccc2nc3cc(Cl)ccc3c(Nc3ccc(CN4CCN(C)CC4)cc3)c2c1", "values": [{"measurement": "EC50", "setting": "HT-22 [3]", "value": 0.39, "unit": "µM"}, {"measurement": "selectivity ratio", "setting": "[4]", "value": 19.3}, {"measurement": "EC50", "setting": "HT-22 [2]", "value": 7.52, "unit": "µM"}]}, {"smiles": "Nc1ccc(N)cc1", "values": [{"measurement": "EC50", "setting": "HT-22 [3]", "value": 0.879, "unit": "µM"}]}, {"smiles": "COc1ccc2nc3cc(Cl)ccc3c(Nc3ccc(N4CCN(C(C)=O)CC4)cc3)c2c1", "values": [{"measurement": "EC50", "setting": "HT-22 [3]", "value": 0.5, "unit": "µM"}, {"measurement": "selectivity ratio", "setting": "[4]", "value": 27.3}, {"measurement": "EC50", "setting": "HT-22 [2]", "value": 13.7, "unit": "µM"}]}, {"smiles": "CCN(CC)CCNc1c2c(nc3cc(Cl)ccc13)CCCC2", "values": [{"measurement": "Activity", "setting": "HT-22 [1]", "value": "inactive"}, {"measurement": "EC50", "setting": "HT-22 [2]", "value": "> 30", "unit": "µM"}]}, {"smiles": "COc1ccc2nc3cc(Cl)ccc3c(Nc3ccc(C#N)cc3)c2c1", "values": [{"measurement": "EC50", "setting": "HT-22 [3]", "value": 2.98, "unit": "µM"}, {"measurement": "selectivity ratio", "setting": "[4]", "value": 7.1}, {"measurement": "EC50", "setting": "HT-22 [2]", "value": 21.2, "unit": "µM"}]}, {"smiles": "CCN(CC)c1ccc(Nc2ccnc3cc(Cl)ccc23)cc1", "values": [{"measurement": "EC50", "setting": "HT-22 [3]", "value": 2.42, "unit": "µM"}, {"measurement": "selectivity ratio", "setting": "[4]", "value": "> 5"}, {"measurement": "EC50", "setting": "HT-22 [2]", "value": 12.8, "unit": "µM"}]}, {"smiles": "COc1ccc(Nc2c3ccc(Cl)cc3nc3ccc(OC)cc23)cc1", "values": [{"measurement": "EC50", "setting": "HT-22 [3]", "value": 0.63, "unit": "µM"}, {"measurement": "selectivity ratio", "setting": "[4]", "value": 12.1}, {"measurement": "EC50", "setting": "HT-22 [2]", "value": 7.62, "unit": "µM"}]}, {"smiles": "c1ccc(Nc2ccc(Nc3ccccc3)cc2)cc1", "note": "[N,N'-DIPHENYL-P-PHENYLENEDIAMINE]", "values": [{"measurement": "EC50", "setting": "HT-22 [3]", "value": 0.0077, "unit": "µM"}]}, {"smiles": "Nc1ccccc1", "note": "[ANILINE]", "values": [{"measurement": "EC50", "setting": "HT-22 [3]", "value": 9.4, "unit": "µM"}]}, {"smiles": "COc1ccc2nc3cc(Cl)ccc3c(Nc3ccc(F)c(F)c3)c2c1", "values": [{"measurement": "EC50", "setting": "HT-22 [3]", "value": 0.9, "unit": "µM"}, {"measurement": "selectivity ratio", "setting": "[4]", "value": 17.2}, {"measurement": "EC50", "setting": "HT-22 [2]", "value": 15.5, "unit": "µM"}]}, {"smiles": "COc1ccc2nc3cc(Cl)ccc3c(Nc3ccc(C(=O)N4CCN(C)CC4)cc3)c2c1", "values": [{"measurement": "EC50", "setting": "HT-22 [3]", "value": 1.14, "unit": "µM"}, {"measurement": "selectivity ratio", "setting": "[4]", "value": 9.5}, {"measurement": "EC50", "setting": "HT-22 [2]", "value": 10.9, "unit": "µM"}]}, {"smiles": "COc1ccc2nc3cc(Cl)ccc3c(Nc3ccc(N4CCN(CCCO)CC4)cc3)c2c1", "values": [{"measurement": "EC50", "setting": "HT-22 [3]", "value": 0.77, "unit": "µM"}, {"measurement": "selectivity ratio", "setting": "[4]", "value": 21}, {"measurement": "EC50", "setting": "HT-22 [2]", "value": 16.2, "unit": "µM"}]}, {"smiles": "Clc1ccc2c(Nc3ccccc3)ccnc2c1", "values": [{"measurement": "EC50", "setting": "HT-22 [3]", "value": 2.54, "unit": "µM"}, {"measurement": "selectivity ratio", "setting": "[4]", "value": "> 12"}, {"measurement": "EC50", "setting": "HT-22 [2]", "value": "> 30", "unit": "µM"}]}, {"smiles": "COc1ccc2nc3cc(Cl)ccc3c(Nc3ccc(O)c(O)c3)c2c1", "values": [{"measurement": "EC50", "setting": "HT-22 [3]", "value": 2.75, "unit": "µM"}, {"measurement": "selectivity ratio", "setting": "[4]", "value": 3.5}, {"measurement": "EC50", "setting": "HT-22 [2]", "value": 9.6, "unit": "µM"}]}]}
